# Measured values: patent US20100130737A1, “Regulating Agent of GPR34 Receptor Function” (TAKEDA PHARMACEUTICAL COMPANY LIMITED, priority 2005, published 2010)
# Columns and labels:
# human GPR34 [1] = biological target: T1, human GPR34 (Homo sapiens, UniProt Q9UPC5); assay: Human GPR34 antagonist activity as indicated by cAMP in human GPR34-expressing CHO cells; type: cell-based; parameters: expressed in transfected cells; conditions: for cAMP (%): buffer only = 0%, 2.5 μM Forskolin = 100%
# Method: Human GPR34-expressing CHO cells were maintained in nucleic acid-free MEM-a (Invitrogen) containing 10% dialyzed FBS (Invitrogen) and penicillin and streptomycin (BioWhittaker) (hereunder described as culture medium), and on the day before assay the cells were stripped with trypsin/EDTA (Invitrogen), centrifuged, re-suspended in culture medium and seeded 2×10^5 per well, 1 ml/well on a 24-well plate (Nunc). The seeded cells were cultured overnight at 37° C. in a CO2 incubator, and subjected to cAMP assay the next day.
# The plate was washed twice, 500 μL/well with Hank's balanced salt solution (HBSS, Invitrogen) containing 20 mM HEPES (1 M HEPES solution, Dojindo) with 0.2 mM 3-isobutyl-1-methylxanthine (IBMX, Wako Pure Chemical) added thereto (hereunder described as assay buffer (HBSS+HEPES-FIBMX)), and kept warm for 30 minutes in a water bath at 37° C. Next, 250 μL of assay buffer (HBSS+HEPES+IBMX) was substituted, and the plate was kept for a further 15 minutes in a water bath at 37° C. 2 μl of GPR34 antagonist compound solution at 250× the final concentration was added and gently stirred with a plate mixer, 2 μL, of lysoPS (Sigma or Alexis) at 250× the final concentration and 5 μM (2× the final concentration) of Forskolin (Wako Pure Chemical) were added, and 250 μL, of assay buffer (HBSS+HEPES+IBMX) was added and reacted for 30 minutes in a water bath at 37° C. In the case of the human GPR34-expressing CHO cells, 2 μL of 50 μM lysoPS was added so that the final concentration would be roughly the EC50 value of 0.2 μM. After completion of the reaction, intracellular cAMP was detected by competitive EIA using a cAMP Screen System (Applied Biosystems). After completion of the assay, 200 μL, of the Assay/lysis buffer for the cAMP Screen System was substituted, and intracellular cAMP was extracted by maintaining the cells for about 40 minutes at 37° C. EIA was then performed in accordance with the cAMP Screen Systems protocols to assay intracellular cAMP.
# Relative percentage values were calculated by Microsoft Excel with the cAMP level with only assay buffer (HBSS+HEPES+IBMX) added (“None” in the table) given as 0%, and the cAMP level with the final concentration 2.5 μM Forskolin added given as 100%.
# human GPR34 [2] = biological target: T1, human GPR34; assay: Human GPR34 antagonist activity indicated by changes in intracellular calcium concentration (FLIPR); type: cell-based; parameters: expressed in transfected cells; host or cells: CHO cells (human GPR34CHO line) stably transfected with pCR3.1 human lung Gα16; conditions: CHO cells expressing human GPR34/Gα16, against 2 μM lysoPS final concentration, Fluo-3AM
# Method: CHO cells expressing human GPR34/Gα were diluted to 3×10^4/100 μl in cell culture medium [nucleic acid-free Minimum Essential Alpha Medium (Invitrogen) containing 10% dialyzed fetal bovine serum (Invitrogen) 0.5 mg/ml Geneticin (Invitrogen), penicillin and streptomycin (Invitrogen)], dispensed 100 μl per well into a Black walled 96-well plate (Costar), and cultured overnight in a CO2 incubator. Changes in intracellular calcium concentration were measured with a FLIPR (Molecular Device) by the methods described below.
# 50 μg of Fluo-3AM (Dojindo) was dissolved in 21 μl of DMSO (Dojindo), an equal amount of 20% pluronic acid (Molecular Probes) was added and mixed, and this was added to 10.6 ml of assay buffer [prepared by adding 20 ml of 1 M HEPES (pH 7.4, Dojindo) to HBSS (Invitrogen), and then adding 10 ml of a solution obtained by dissolving 710 mg of Probenecid (Sigma) in 5 ml of 1 N NaOH and then adding and mixing 5 ml of the HBSS/HEPES solution)] with 105 μl of fetal bovine serum added thereto to prepare a fluorescent dye solution. The medium was removed from the cell plate, 100 μl per well of the fluorescent dye solution was immediately poured in, and the cells were cultured for 1 hour in a CO2 incubator to incorporate the fluorescent dye into the cells. After culture, the cells were washed with the aforementioned assay buffer. The compound was dissolved in DMSO (Wako Pure Chemical), diluted with DMSO as necessary, added to the aforementioned assay buffer to the target concentration and poured into the plate. To measure antagonist activity, 8 μM lysophosphatidyl serine (lysoPS, Alexis) solution (2 μM final concentration during reaction) was poured into the plate, which was set in the FLIPR. Following these preliminaries, the agonist effect was measured in the FLIPR by measuring changes in intracellular calcium concentration up to 180 seconds after addition of the sample, and after 200 seconds lysoPS was added and the antagonist effect was measured. In the case of the agonist effect, the EC50 value of the added compound was calculated from the dose reaction curve using changes in fluorescent strength from 0 to 180 seconds after the start of the reaction. In the case of the antagonist effect, the IC50 was calculated from the dose reaction curve using changes in maximum fluorescent strength after 200 to 380 seconds of reaction time. The data was analyzed using “GraphPad PRISM4”.
# [3] = tested on: rat peritoneal mast cells; assay: Degranulation inhibiting activity in rat peritoneal mast cells (β-hexosaminidase release); type: cell-based; conditions: for degranulation of rat peritoneal mast cells due to LysoPS and DNP-BSA stimulation: 10 μM compound, co-stimulation with 3 μM LysoPS and 100 ng/ml DNP-BSA = 100%, spontaneous degranulation = 0%
# Method: Ice-cooled mast cell medium (hereunder called MCM: 150 mM NaCl, 3.7 mM KCl, 3.0 mM NaH2PO4, 3.5 mM KH2PO4, 5.6 mM (D)-Glucose, 0.1% bovine serum albumin (BSA), 0.1% gelatin, 10 U/ml heparin, pH 6.8) was injected intraperitoneally into rats, about 40 ml per rat, the abdomens were massaged for about 2 minutes and then opened along the median line, and ascites was collected. The collected ascites were filtered with a cell strainer (Becton Dickinson) and centrifuged for 7 minutes at 50×g, and the precipitated cells were suspended in MCM and then centrifuged again for 7 minutes at 50×g. The precipitated cells were suspended in 5 ml of MCM, layered over 2 ml of 32% (w/v) BSA solution (dissolved in 0.9% NaCL), and left for 20 minutes at room temperature. This was centrifuged for 15 minutes at room temperature at 300×g, the cells between the MCM and BSA solution were discarded, and the precipitated cells were suspended in MCM and washed twice by being centrifuged for 5 minutes at 300×g. The precipitated cells were suspended in assay buffer (150 mM NaCl, 3.7 mM KCl, 3.0 mM NaH2PO4, 3.5 mM KH2PO4, 0.9 mM CaCl2, 5.6 mM (D)-Glucose, 0.01% BSA, pH 6.8), and these cells were used in the following test.
# RPMC cells suspended in assay buffer were passively sensitized by adding 10 μg/ml of monoclonal mouse anti-DNP-IgE (Seikagaku) and leaving them for 30 minutes on ice. After 5 minutes of centrifugation at 300×g, the precipitated cells were washed 3 times with assay buffer. The RPMC cells suspended in assay buffer were dispensed on 96-well V-bottom plates, 2×10^4 cells per well. The assay was performed with n=3 under each set of reaction conditions. The plates were maintained for 5 minutes at 37° C., the test compound was added, and after 15 minutes lysoPS (Sigma) was added to a final concentration of 3 μM and DNP-BSA (Calbiochem) to a final concentration of 100 ng/ml for a final capacity of 200 and left on a water bath at 37° C. After 20 minutes, the plate was ice cooled to stop RPMC activation, followed by 5 minutes of centrifugation at 300×g, and β-hexosaminidase activity in the supernatant was measured using 4-methylumbelliferyl-2-acetamido-2-deoxy-β-D-glucopyranoside (Wako Pure Chemical) degradation as the indicator.
# [4] = tested on: rat peritoneal mast cells; assay: as above; type: cell-based
# human GPR34 [5] = biological target: T1, human GPR34; assay: Reactivity of human GPR34CHO cell strain stably expressing Gα16 to lysophosphatidyl serine (FLIPR); type: cell-based; parameters: expressed in transfected cells; host or cells: CHO cells (human GPR34CHO line) stably transfected with pCR3.1 human lung Gα16; conditions: Fluo 3-AM, 3 minutes after addition; concentration-dependent
# Method: The reactivity of the human GPR34CHO cell strain stably expressing Gα16 to lysophosphatidyl serine (lysoPS) was investigated by the FLIPR (Molecular Devices) assay method. The fluorescent calcium indicator Fluo 3-AM (Wako Pure Chemical) was incorporated into the human GPR34CHO cell strain stably expressing Gα16, and the cells were washed with assay buffer. Various concentrations of 50 μl lysophosphatidyl serine solution were added to cells immersed in 100 μl of assay buffer, and the intracellular fluorescent strength 3 minutes after addition was measured by FLIPR.
# T1 sequence (Q9UPC5 whole entry): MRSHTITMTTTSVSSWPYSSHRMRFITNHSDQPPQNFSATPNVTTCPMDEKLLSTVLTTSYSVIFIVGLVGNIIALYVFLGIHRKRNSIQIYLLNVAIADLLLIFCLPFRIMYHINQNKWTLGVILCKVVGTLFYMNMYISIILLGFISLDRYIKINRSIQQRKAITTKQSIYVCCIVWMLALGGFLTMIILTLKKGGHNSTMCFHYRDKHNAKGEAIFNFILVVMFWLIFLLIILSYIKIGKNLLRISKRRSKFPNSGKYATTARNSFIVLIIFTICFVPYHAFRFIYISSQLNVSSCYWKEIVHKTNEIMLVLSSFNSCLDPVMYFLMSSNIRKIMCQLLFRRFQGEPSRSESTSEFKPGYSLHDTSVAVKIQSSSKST
Compound,melting point,IC50 (human GPR34 [2]),degranulation of rat peritoneal mast cells due to LysoPS and DNP-BSA stimulation [3],further results
O=C(Cc1ccc(OCc2ccc(F)cc2)cc1)NC1(C(=O)O)Cc2ccc(-c3ccc(Cl)cc3)cc2C1 (centres unmarked) [Example B134],208 to 209 °C,,,cAMP (%) (human GPR34 [1]; 10 μM compound + 2.5 μM Forskolin + 0.2 μM LysoPS): 299%; restoration of cAMP levels (in words) (human GPR34 [1]; at 10 μM): restored cAMP levels to at or above the level before Forskolin stimulus
"O=C(N[C@@H](Cc1ccc(OCc2ccc(F)cc2)cc1)C(=O)O)c1cc2ccc(-c3ccc(Cl)cc3)cc2o1 [Example C157, N-{[6-(4-Chlorophenyl)-1-benzofuran-2-yl]carbonyl}-O-(4-fluorobenzyl) tyrosine]",166 to 168 °C,≤ 1000 nM,4.8%,
lisophosphatidylserine [lysoPS],,,,"RPMC degranulation ([4]; 100 ng/ml DNP-BSA stimulus + 0.1 μM lysoPS added simultaneously): 8.4%; RPMC degranulation ([4]; 100 ng/ml DNP-BSA stimulus + 0.3 μM lysoPS added simultaneously): 14.7%; RPMC degranulation ([4]; 100 ng/ml DNP-BSA stimulus + 1 μM lysoPS added simultaneously): 26.0%; RPMC degranulation ([4]; 100 ng/ml DNP-BSA stimulus + 10 μM lysoPS added simultaneously): 45.2%; cAMP (%) (human GPR34 [1]; 0.2 μM LysoPS + 2.5 μM Forskolin): 43%; EC50 (human GPR34 [1]; human GPR34-expressing CHO cells, cAMP assay, read-out: EC50 value of lysoPS): ~200 nM; RPMC degranulation ([3]; 100 ng/ml DNP-BSA stimulus + 3 μM lysoPS added simultaneously): 36.7%"
lysophosphatidyl serine,,,,"intracellular fluorescent strength (intracellular calcium), in words (human GPR34 [5]): caused a rise in intracellular fluorescent strength"

# Continued, in another order:
melting point,IC50 (human GPR34 [2]),Compound,degranulation of rat peritoneal mast cells due to LysoPS and DNP-BSA stimulation [3],further results
222 °C,≤ 1000 nM,"CN(C(=O)c1cn2ccc(-c3ccc(Cl)cc3)cc2n1)[C@@H](Cc1ccc(OCc2ccccc2)cc1)C(=O)O [Example E51, O-Benzyl-N-{[7-(4-chlorophenyl)imidazo[1,2-a]pyridin-2-yl]carbonyl}-N-methyltyrosine]",5.0%,
262 °C,≤ 1000 nM,"Cc1ccc(COc2ccc(C[C@H](NC(=O)c3cn4ccc(-c5ccc(Cl)cc5)cc4n3)C(=O)O)cc2)cc1 [Example E59, N-{[7-(4-Chlorophenyl)imidazo[1,2-a]pyridin-2-yl]carbonyl}-O-(4-methylbenzyl)tyrosine]",5.1%,
261 °C,≤ 1000 nM,"O=C(N[C@@H](Cc1ccc(OCc2ccc(Cl)cc2)cc1)C(=O)O)c1cn2ccc(-c3ccc(Cl)cc3)cc2n1 [Example E63, O-(4-Chlorobenzyl)-N-{[7-(4-chlorophenyl)imidazo[1,2-a]pyridin-2-yl]carbonyl}tyrosine]",5.7%,
245 °C,≤ 1000 nM,"CCc1ccc(COc2ccc(C[C@H](NC(=O)c3cn4ccc(-c5ccc(Cl)cc5)cc4n3)C(=O)O)cc2)cc1 [Example E65, N-{[7-(4-Chlorophenyl)imidazo[1,2-a]pyridin-2-yl]carbonyl}-O-(4-ethylbenzyl) tyrosine]",8.8%,
